Assays:
Assay type in all cases: cell-based, human
[1] = system: anti-CD19 CAR-T cells co-cultured with irradiated K562-CD19 target cells; assay: Cytokine secretion after antigen stimulation (Luminex); conditions: cells expanded with 200 nM PI-103 or 1 μM Compound 63; E:T 1:1, ~16 hours
Procedure: (§1) Separate compositions of CD4+ and CD8+ cells were isolated from three human donors, activated and transduced with a viral vector encoding an anti-CD19 CAR substantially as described in Example 2. After transduction, the CD4+ and CD8+ T cells derived from each donor were separately incubated for 8 days in the presence of a mTOR kinase inhibitor to expand T cells substantially as described in Example 2, except in the presence of 200 nM PI-103, 1 μM Compound 63, or with DMSO vehicle or media only controls. CD4+ and CD8+ T cells from each donor were then separately harvested, formulated, and cryofrozen. The cryofrozen engineered CD4+ and CD8+ T cells were thawed, washed to remove compound, and cells from the same donor were then combined at a ratio of 1:1 viable CD4+/CAR+ to viable CD8+/CAR+ T cells to produce an expanded anti-CD19 CAR-T cell composition containing CD4+ and CD8+ T cells. Functional activities of the generated anti-CD19 CAR-T cell compositions were assessed.
To measure cytokines following antigen stimulation, cells from the generated anti-CD19 CAR-T cell compositions were co-cultured with irradiated K562-CD19 target cells or K562 parental target cells at an effector:target cell ratio of 1:1. After overnight (˜16 hours) culture, cell culture supernatants were harvested and TNF-alpha, IFN-gamma, and IL-2 cytokine production were measured using a Luminex Multiplex Assay. The fold-change of cytokine production observed in co-culture supernatants was determined from generated anti-CD19 CAR-T cell compositions expanded in the presence of PI-103, Compound 63, or DMSO vehicle compared to cells expanded in media only.

[2] = system: CD8+ and CD4+ T cells of anti-CD19 CAR-T cell compositions; assay: Intracellular polyfunctional cytokine profiles; conditions: cells expanded with 200 nM PI-103 or 1 μM Compound 63; PMA/Ionomycin + Golgi Inhibitor or Golgi Inhibitor alone, 5 hours
Procedure: as §1
Intracellular cytokines, CD107a, IFN-gamma ([…]), IL-2, IL-17a, and TNF-alpha (TNFα), were assessed in co-cultured T cells that were split into two groups and further incubated for 5 hours with PMA/Ionomycin and a Golgi Inhibitor or a Golgi Inhibitor alone. The intracellular cytokine accumulation was expressed as a fold change in frequency of cytokine positive cells from media-only controls. […]

[3] = system: CAR-T cells incubated with CD19-expressing target cells; assay: Intracellular and secreted cytokines of CAR-T cells (mixed CD4+/CD8+ process); conditions: for levels of secreted cytokines (IL-2, TNF-alpha, IFN-gamma) in supernatants: 20 hours with CD19-antigen expressing cells, ELISA; for polyfunctional effector cytokine profiles (IL-2, TNF-alpha, IFN-gamma) compared to DMSO: CD8+ and CD4+ subsets, primary or secondary stimulation, golgi inhibitor 5 hours
Procedure: Separate compositions of CD4+ and CD8+ cells were selected from isolated PBMCs from a leukapheresis sample from the same human donor by immunoaffinity based selection, and the selected cell compositions were cryofrozen. The separate compositions of CD4+ and CD8+ T cells were subsequently thawed and mixed at a ratio of 1:1 of viable CD4+ T cells to viable CD8+ T cells. In this study, the mixed CD4+ and CD8+ cell populations were incubated in the presence of Compound 63, PI103 or no inhibitor (DMSO vehicle control) beginning at the initiation of stimulation. In more detail, the mixed CD4+ and CD8+ T cell composition was stimulated (in the presence or absence of an inhibitor, as indicated) in the presence of paramagnetic polystyrene-coated beads with attached anti-CD3 and anti-CD28 antibodies for between 18 to 30 hours, and were then transduced with a lentiviral vector encoding an anti-CD19 CAR. The CAR contained an scFv antigen-binding domain specific for CD19 (derived from FMC63), a CD28 transmembrane region, a 4-1BB costimulatory signaling region, and a CD3-zeta derived intracellular signaling domain. The cells were then expanded in the presence of cytokines typically for approximately 6-7 days. Beginning with stimulation and for the duration of the process, the media contained DMSO (vehicle control), 2 μM PI103 or 1 μM Compound 63. The vehicle control contained DMSO at a volume to match that in the mTOR inhibitor-treated samples. Expanded cells were cryopreserved. For assessment, the cryopreserved CAR-T cells were thawed and washed prior to assessment in assay media without supportive cytokines and without inhibitor or vehicle.
Intracellular cytokine levels were monitored in cells of co-cultures incubated with freshly thawed generated CAR-T cells or CAR-T cells after secondary restimulation with CD19-expressing target cells. CAR-T cells were incubated with target-expressing cells in the presence of golgi inhibitor for 5 hours. Intracellular expression of IL-2, TNF-alpha and IFN-gamma was determined and a polyfunctional score was calculated by gating for cumulative CAR-T cells positive for IL-2 and any combination of IFN-gamma and TNF-alpha. […] Generated CAR-T cells were also cultured with CD19-antigen expressing cells for 20 hours and levels of IL-2, TNF-alpha and IFN-gamma were assessed in cell culture supernatants by ELISA.

| Structure (SMILES) | cytokine production (TNF-alpha, IFN-gamma, IL-2) compared to control cells [1] | production of IFN-gamma compared to control cells [1] | frequency of polyfunctional cytokine profiles in CD8+ and CD4+ T cells vs control cells [2] | levels of secreted cytokines (IL-2, TNF-alpha, IFN-gamma) in supernatants [3] | polyfunctional effector cytokine profiles (IL-2, TNF-alpha, IFN-gamma) compared to DMSO [3] |
| --- | --- | --- | --- | --- | --- |
| CC(C)c1ccccc1-n1c(=O)[nH]c2c(C(N)=O)nc(-c3cccc(O)c3)nc21 [Compound 63, 2-(3-Hydroxyphenyl)-9-(2-isopropylphenyl)-8-oxo-8,9-dihydro-7H-purine-6-carboxamide] | improvements in cytokine production | improved | increased frequency of certain polyfunctional cytokine profiles | increased levels of secreted cytokines | improved polyfunctional effector cytokine profiles |
| Oc1cccc(-c2nc(N3CCOCC3)c3oc4ncccc4c3n2)c1 [PI-103, reference compound] | improvements in cytokine production | improved | increased frequency of certain polyfunctional cytokine profiles | increased levels of secreted cytokines | improved polyfunctional effector cytokine profiles |
